US10781420B2, “Method for producing cerebellar progenitor tissue” (RIKEN, priority 2014, dated 2020)

Legend:
Type in all cases: cell-based
[1] = system: Human pluripotent stem cell aggregates; test: Formation of rhombic lip and 3 layer structure of cerebellar plate by addition of SDF1
Description: Human pluripotent stem cell aggregates were cultured according to the method of Example 6. On and after day 21, the cells were cultured in a neural culture medium (Neurobasal/GlutaMaxI/N2). On day 28, the total amount of the medium was exchanged with the same medium, and SDF1 was added at a final concentration of 300 ng/ml. On day 35, differentiation of the tissue was analyzed by the immunofluorescence method.

[2] = system: Human pluripotent stem cell aggregates; test: Self-formation of cerebellar plate tissue (Kirrel2 positive neuroepithelium) from human pluripotent stem cell aggregates
Description: The was aggregates were transferred to a low-cell-adhesion 10 cm dish on and after day 21, and cultured in a neural culture medium (Neurobasal/GlutaMaxI/N2, all Life Technologies). On day 28 of culturing, the total amount of the medium was exchanged with the same neural culture medium, and differentiation of the tissue was analyzed by the immunofluorescence method on day 35 of culturing.
Separated Kirrel2 positive cells, and cerebellar granule cell progenitors prepared from the upper rhombic lip of embryonic day 14 mouse were dispersed into single cells by cell dispersion enzyme (TrypLE, Life Technologies), and cocultured on a cover glass coated with poly D-lysine/laminin in DMEM/F12/10% FBS medium (5% CO2, 37° C.). In coculture, human pluripotent stem cell-derived Kirrel positive cells (1 vol) relative to mouse-derived cerebellar granule cell progenitors (10 vol) were mixed. After 6-12 hr, DMEM/F12/N2/BSA/Tri-iodothyronine (T3) was added to decrease the FBS concentration to about 0.8%.

[3] = system: Human pluripotent stem cell aggregates; test: Formation of cerebellar plate tissue having dorsal-ventral axis pattern by addition of FGF19
Description: Human pluripotent stem cell aggregates were cultured according to the methods of Examples 1 and 2. […] The cells were cultured in a neural culture medium (Neurobasal/GlutaMaxI/N2) on and after day 21. On day 28, the total amount of the medium was exchanged with the same medium, and on day 35, tissue differentiation was analyzed by the immunofluorescence method.

[4] = system: Human ES cells (KhES-1); test: Differentiation of human ES cell aggregates (SFEBq method) into midbrain-hindbrain boundary neural progenitors
Description: Human ES cells (KhES-1) subjected to maintenance culturing on MEF by a conventional method were used. To differentiate human ES cells by the serum-free floating culture of embryoid body-like aggregates with quick reaggregation (SFEBq method), human ES cells were enzymatically dispersed to single cells, according to the method of Nakano et al. (Cell Stem Cell, 10(6), 771-785, 2012), and reaggregated using a low-cell-adhesive V-bottom 96 well plate (SUMITOMO BAKELITE). 6,000 cells were seeded per well, and cultured in, as a differentiation medium, CDM medium [chemical synthesis medium without a growth factor (growth-factor-free Chemically Defined Medium; gfCDM; Wataya et al., Proc. Natl. Acad. Sci. USA, 105, 11796-11801, 2008) supplemented with insulin (7 μg/ml) and apo-transferrin (15 μg/ml)] under 5% CO2 at 37° C.
The seeding day is taken as day 0 of differentiation culturing. […] […] On day 7, ⅓ of the medium was exchanged with a differentiation medium free of Y-27632, SB431542 and Fgf2. On day 14 of culturing, the medium was completely substituted by a differentiation medium free of Y-27632, SB431542 and FGF2. The cell aggregates were fixed and sliced, and tissue differentiation was analyzed by the immunofluorescence method and quantitative PCR method.

[5] = system: Human pluripotent stem cell aggregates; test: Formation of rhombic lip in cerebellar plate tissue by addition of GDF7
Description: Human pluripotent stem cell aggregates were cultured according to the method of Example 6. […] The cells were continuously cultured in a neural culture medium (Neurobasal/GlutaMaxI/N2). On day 28, the total amount of the medium was exchanged with the same medium free of GDF7, and on day 35, the cells were analyzed by the immunofluorescence method and the quantitative PCR method.

[6] = SDF1 300 ng/ml added on day 28, analysed day 35
[7] = FGF19 100 ng/ml added on day 14, analysed day 35
[8] = GDF7 100 ng/ml added on day 21, day 35, quantitative PCR
[9] = GDF7 added from day 14 of culturing

laminin
formation of rhombic lip and 3 layer structure of cerebellar plate ([1]; used in place of SDF1): could not substitute SDF1

SDF1: known chemokine also called CXCL12, secreted ligand for chemokine receptor 4 (CXCR4)
formation of rhombic lip and 3 layer structure of cerebellar plate ([1]; SDF1 100 ng/ml): promoted formation of rhombic lip and formation of a 3 layer structure of cerebellar plate
configuration of the rhombic lip [1, 6]: enables continuous configuration of the rhombic lip
formation of continuous kirrel2 positive neuroepithelial structure [1, 6]: promoted formation of a continuous kirrel2 positive neuroepithelial structure
formation of rhombic lip and 3 layer structure of cerebellar plate ([1]; SDF1 500 ng/ml): promoted formation of rhombic lip and formation of a 3 layer structure of cerebellar plate
formation of rhombic lip and 3 layer structure of cerebellar plate ([1]; SDF1 added from day 21): an effect similar to that when added from day 28 was observed

Sonic Hedgehog
formation of polarized cerebellar plate ([2]; addition of Sonic Hedgehog to human pluripotent stem cell culturing system): conversely promotes formation of polarized cerebellar plate

FGF19: known cytokine, human ortholog of mouse Fgf15; second fibroblast growth factor
effect (frequency) on dorsal-ventral polarity formation relative to that at 100 ng/ml ([3]; FGF19 50 ng/ml): about ⅓
formation of structure having polarity along the dorsal-ventral axis of neural tube ([3]; FGF19 50 ng/ml): promoted formation of a structure having polarity along the dorsal-ventral axis of the neural tube
formation of continuous flat-oval neuroepithelial structure in the cell aggregate [3, 7]: promoted formation of a continuous flat-oval neuroepithelial structure
formation of structure having polarity along the dorsal-ventral axis of neural tube [3, 7]: resulted in the formation of a structure having polarity along the dorsal-ventral axis of neural tube
effect (frequency) on dorsal-ventral polarity formation relative to that at 100 ng/ml ([3]; FGF19 300 ng/ml): of the same level as that at 100 ng/ml
formation of the dorsal-ventral axis pattern ([3]; FGF19 300 ng/ml): similarly promoted formation of the dorsal-ventral axis pattern
formation of a dorsal-ventral axis pattern ([3]; FGF19 added on day 10 of culturing): formation of a dorsal-ventral axis pattern was promoted, though the efficiency was low

C[C@@H](N)[C@H]1CC[C@H](C(=O)Nc2ccncc2)CC1 [Y-27632, (+)-(R)-trans-4-(1-aminoethyl)-N-(4-pyridyl)cyclohexanecarboxamide, reference compound]
aggregate formation of human ES cells ([4]; when Y-27632 was not added): did not form an aggregate

NC(=O)c1ccc(-c2nc(-c3ccc4c(c3)OCO4)c(-c3ccccn3)[nH]2)cc1 [SB431542, 4-(5-benzol[1,3]dioxol-5-yl-4-pyridin-2-yl-1H-imidazol-2-yl)-benzamide, reference compound]
induction of differentiation into neural progenitors ([4]; SB431542 3 μM): induction of differentiation into neural progenitors was also observed
differentiation into neural progenitors in the midbrain-hindbrain boundary ([4]; SB431542 10-30 μM): induced differentiation into neural progenitors in the midbrain-hindbrain boundary

CC1=C2C[C@H]3[C@@H](CC=C4C[C@@H](O)CC[C@@]43C)[C@@H]2CC[C@]12O[C@@H]1C[C@H](C)CN[C@H]1[C@H]2C [cyclopamine, reference compound]
cerebellar plate formation from human pluripotent stem cells ([2]; Hedgehog inhibitor added): did not significantly promote cerebellar plate formation

B1: FGF17: fibroblast growth factor used instead of FGF19 (protein, UniProt O60258 23-216, looked up)
Fibroblast growth factor 17: TQGENHPSPNFNQYVRDQGAMTDQLSRRQIREYQLYSRTSGKHVQVTGRRISATAEDGNKFAKLIVETDTFGSRVRIKGAESEKYICMNKRGKLIGKPSGKSKDCVFTEIVLENNYTAFQNARHEGWFMAFTRQGRPRQASRSRQNQREAHFIKRLYQGQLPFPNHAEKQKQFEFVGSAPTRRTKRTRRPQPLT
formation of a dorsal-ventral axis pattern ([3]; used instead of FGF19): promoted like FGF19, though the effect was weaker than FGF19

B2: FGF8: fibroblast growth factor used instead of FGF19 (protein, UniProt P55075 23-233, looked up)
Fibroblast growth factor 8: QEGPGRGPALGRELASLFRAGREPQGVSQQHVREQSLVTDQLSRRLIRTYQLYSRTSGKHVQVLANKRINAMAEDGDPFAKLIVETDTFGSRVRVRGAETGLYICMNKKGKLIAKSNGKGKDCVFTEIVLENNYTALQNAKYEGWYMAFTRKGRPRKGSKTRQHQREVHFMKRLPRGHHTTEQSLRFEFLNYPPFTRSLRGSQRTWAPEPR
formation of a dorsal-ventral axis pattern ([3]; used instead of FGF19): promoted like FGF19, though the effect was weaker than FGF19

B3: BMP4: factor known to promote formation of rhombic lip in mouse (protein, UniProt P12644 293-408, looked up)
Bone morphogenetic protein 4: SPKHHSQRARKKNKNCRRHSLYVDFSDVGWNDWIVAPPGYQAFYCHGDCPFPLADHLNSTNHAIVQTLVNSVNSSIPKACCVPTELSAISMLYLDEYDKVVLKNYQEMVVEGCGCR
formation of the rhombic lip from human pluripotent stem cell ([5]; BMP4 used instead of GDF7): could not be induced

B4: GDF7: known cytokine promoting differentiation into cerebellar granule cell progenitors and formation of rhombic lip (protein, UniProt Q7Z4P5 322-450, looked up)
Growth/differentiation factor …: TALAGTRTAQGSGGGAGRGHGRRGRSRCSRKPLHVDFKELGWDDWIIAPLDYEAYHCEGLCDFPLRSHLEPTNHAIIQTLLNSMAPDAAPASCCVPARLSPISILYIDAANNVVYKQYEDMVVEACGCR
expression of Atoh1 positive cell in neural progenitor tissue ([5]; GDF7 100 ng/ml added on day 21, analysed day 35, immunofluorescence): promoted expression of Atoh1 positive cell
Atoh1 gene level relative to that by the addition of FGF2 (first comparison printed) [5, 8]: about 220 fold
Atoh1 gene level relative to that by the addition of FGF2 (second comparison printed) [5, 8]: 1.5 fold
growth of cell aggregate [5, 9]: growth of cell aggregate was inhibited
induction of Atoh1 positive cell [5, 9]: Atoh1 positive cell was induced
formation of the rhombic lip ([5]; GDF7 not removed from the medium on and after day 28): adverse influence on the formation of the rhombic lip was not found
